From BindingDB's records for doi:10.1038/nchembio.2304 (Novartis Institutes for BioMedical Research, 2017)

Key:
Experiment in all cases: HMT Assay
[1] = target: T1, Rho-associated protein kinase 2 [6-553] (Human, UniProt O75116)
T1 construct: 6-553

[2] = target: T2, Fibroblast growth factor receptor 4 [388-802] (Human, UniProt P22455)
T2 construct: 388-802

[3] = target: Histone-lysine N-methyltransferase SUV39H2 (Human, UniProt Q9H5I1)
[4] = target: Serine/threonine-protein kinase 17B (Homo sapiens, UniProt O94768)
[5] = target: Protein kinase C theta type (Homo sapiens, UniProt Q04759)
[6] = target: 5-hydroxytryptamine receptor 1A (Homo sapiens, UniProt P08908)
[7] = target: T3, Protein arginine N-methyltransferase 1 [11-371] (Homo sapiens, UniProt Q99873)
T3 construct: 11-371

[8] = target: Alpha-1A adrenergic receptor (Homo sapiens, UniProt P35348)
[9] = target: DNA (cytosine-5)-methyltransferase 1 (Homo sapiens, UniProt P26358)
[10] = target: Protein arginine N-methyltransferase 3 [N508S] (Homo sapiens, UniProt O60678, N508S)
[11] = target: Muscarinic acetylcholine receptor M2 (Homo sapiens, UniProt P08172)
[12] = target: T4, Tyrosine-protein kinase ABL1 [64-515] (Homo sapiens, UniProt P00519)
T4 construct: 64-515

D(1A) dopamine receptor = D(1A) dopamine receptor (Homo sapiens, UniProt P21728)
[13] = target: T5, Mitogen-activated protein kinase kinase kinase 8 [30-404] (Human, UniProt P41279)
T5 construct: 30-404

[14] = target: Mitogen-activated protein kinase kinase kinase kinase 4 (Homo sapiens, UniProt O95819)
[15] = target: T6, Interleukin-1 receptor-associated kinase 1 [184-712] (Human, UniProt P51617)
T6 construct: 184-712

[16] = target: T7, Fibroblast growth factor receptor 2 [406-821] (Human, UniProt P21802)
T7 construct: 406-821

[17] = target: N-lysine methyltransferase SETD6 (Human, UniProt Q8TBK2)
[18] = target: Tyrosine-protein kinase Lyn (Homo sapiens, UniProt P07948)
[19] = target: Sodium-dependent noradrenaline transporter (Homo sapiens, UniProt P23975)
[20] = target: Methylosome protein 50/Protein arginine N-methyltransferase 5 (Homo sapiens, UniProt O14744)
[21] = target: Histone-lysine N-methyltransferase NSD3 (Homo sapiens, UniProt Q9BZ95)
[22] = target: T8, Receptor-type tyrosine-protein kinase FLT3 [563-993,D835Y] (Human, UniProt P36888, D835Y)
T8 construct: 563-993

[23] = target: Serine/threonine-protein kinase 4 (Human, UniProt Q13043)
[24] = target: Acetylcholine receptor subunit alpha (Homo sapiens, UniProt P02708)
[25] = target: Tyrosine-protein kinase BTK (Homo sapiens, UniProt Q06187)
Estrogen receptor = Estrogen receptor (Homo sapiens, UniProt P03372)
[26] = target: Gamma-aminobutyric acid receptor subunit alpha-1 (Homo sapiens, UniProt P14867)
[27] = target: Protein kinase C alpha type (Homo sapiens, UniProt P17252)
[28] = target: Histone-arginine methyltransferase CARM1 (Homo sapiens, UniProt Q86X55)
Protocol: (§1) All HMT reactions were performed as described previously [Nasveschuk et al., ACS Med. Chem. Lett., 5:378-383].

[29] = target: Histone-lysine N-methyltransferase SETDB1 (Homo sapiens, UniProt Q15047)
Protocol: as §1

[30] = target: Histone-lysine N-methyltransferase NSD2 (Homo sapiens, UniProt O96028)
Protocol: as §1

[31] = target: N-lysine methyltransferase SMYD2 (Homo sapiens, UniProt Q9NRG4)
Protocol: as §1

[32] = target: Histone-lysine N-methyltransferase, H3 lysine-79 specific (Homo sapiens, UniProt Q8TEK3)
Protocol: as §1

[33] = target: Histone-lysine N-methyltransferase SETD7 (Homo sapiens, UniProt Q8WTS6)
Protocol: as §1

[34] = target: Histone-lysine N-methyltransferase EHMT2 (Homo sapiens, UniProt Q96KQ7)
Protocol: as §1

[35] = target: Histone-lysine N-methyltransferase SETD2 (Homo sapiens, UniProt Q9BYW2)
Protocol: as §1

[36] = target: Histone-lysine N-methyltransferase SMYD3 (Homo sapiens, UniProt Q9H7B4)
Protocol: as §1

Histone-lysine N-methyltransferase SETD7, sequence (Q8WTS6 whole entry): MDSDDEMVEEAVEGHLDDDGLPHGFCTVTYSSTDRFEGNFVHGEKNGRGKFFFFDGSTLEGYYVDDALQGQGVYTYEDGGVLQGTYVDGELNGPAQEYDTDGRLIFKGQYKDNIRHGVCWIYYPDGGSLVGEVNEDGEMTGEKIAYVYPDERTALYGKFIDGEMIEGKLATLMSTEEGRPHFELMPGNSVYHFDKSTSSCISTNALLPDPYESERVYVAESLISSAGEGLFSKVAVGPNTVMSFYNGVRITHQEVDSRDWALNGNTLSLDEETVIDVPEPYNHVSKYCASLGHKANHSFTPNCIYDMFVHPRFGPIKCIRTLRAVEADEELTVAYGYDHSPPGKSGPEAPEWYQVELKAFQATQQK
Protein arginine N-methyltransferase 3 [N508S], sequence (O60678 2-531 N508S limits assumed): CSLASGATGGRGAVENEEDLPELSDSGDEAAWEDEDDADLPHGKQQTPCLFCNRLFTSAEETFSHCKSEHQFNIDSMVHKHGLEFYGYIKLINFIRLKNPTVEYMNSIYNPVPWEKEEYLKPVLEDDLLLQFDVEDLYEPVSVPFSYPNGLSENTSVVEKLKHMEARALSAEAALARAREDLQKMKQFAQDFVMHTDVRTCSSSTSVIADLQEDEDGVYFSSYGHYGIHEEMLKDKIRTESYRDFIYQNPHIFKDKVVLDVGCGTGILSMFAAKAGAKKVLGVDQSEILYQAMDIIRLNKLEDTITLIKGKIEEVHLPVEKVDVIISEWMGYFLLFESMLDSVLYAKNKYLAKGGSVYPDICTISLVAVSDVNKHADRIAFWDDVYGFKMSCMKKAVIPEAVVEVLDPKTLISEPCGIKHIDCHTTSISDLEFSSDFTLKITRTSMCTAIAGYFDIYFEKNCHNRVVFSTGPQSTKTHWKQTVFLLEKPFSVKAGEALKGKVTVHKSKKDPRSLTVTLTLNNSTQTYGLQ
Protein kinase C theta type, sequence (Q04759 whole entry): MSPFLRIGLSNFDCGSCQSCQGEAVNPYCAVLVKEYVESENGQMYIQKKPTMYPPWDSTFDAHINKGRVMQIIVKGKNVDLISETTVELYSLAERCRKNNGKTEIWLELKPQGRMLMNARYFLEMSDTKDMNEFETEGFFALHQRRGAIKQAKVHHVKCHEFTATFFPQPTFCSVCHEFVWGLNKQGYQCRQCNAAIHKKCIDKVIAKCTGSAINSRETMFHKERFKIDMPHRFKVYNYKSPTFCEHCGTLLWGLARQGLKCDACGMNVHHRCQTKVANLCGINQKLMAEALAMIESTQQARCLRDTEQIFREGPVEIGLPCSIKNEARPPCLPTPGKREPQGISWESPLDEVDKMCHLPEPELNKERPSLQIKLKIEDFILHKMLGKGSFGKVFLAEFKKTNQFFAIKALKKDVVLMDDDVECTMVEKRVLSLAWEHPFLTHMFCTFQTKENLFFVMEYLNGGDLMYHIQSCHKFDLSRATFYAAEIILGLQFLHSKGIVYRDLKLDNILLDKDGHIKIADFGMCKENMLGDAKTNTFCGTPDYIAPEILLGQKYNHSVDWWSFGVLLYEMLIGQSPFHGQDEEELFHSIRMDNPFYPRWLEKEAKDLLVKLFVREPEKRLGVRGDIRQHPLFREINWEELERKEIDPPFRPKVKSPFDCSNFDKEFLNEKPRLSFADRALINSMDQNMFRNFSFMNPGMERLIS
Alpha-1A adrenergic receptor, sequence (P35348 whole entry): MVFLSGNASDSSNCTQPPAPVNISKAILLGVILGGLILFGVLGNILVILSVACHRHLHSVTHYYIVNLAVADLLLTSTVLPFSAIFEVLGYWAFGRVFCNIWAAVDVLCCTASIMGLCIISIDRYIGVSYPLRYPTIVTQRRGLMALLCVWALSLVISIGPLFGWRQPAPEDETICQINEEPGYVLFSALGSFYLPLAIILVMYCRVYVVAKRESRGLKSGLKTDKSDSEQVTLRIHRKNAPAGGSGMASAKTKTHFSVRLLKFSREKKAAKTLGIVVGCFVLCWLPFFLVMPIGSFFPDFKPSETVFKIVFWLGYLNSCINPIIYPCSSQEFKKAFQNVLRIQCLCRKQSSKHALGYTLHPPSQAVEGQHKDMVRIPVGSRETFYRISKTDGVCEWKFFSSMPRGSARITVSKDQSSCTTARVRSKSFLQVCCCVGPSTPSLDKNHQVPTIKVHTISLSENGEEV
Tyrosine-protein kinase BTK, sequence (Q06187 whole entry): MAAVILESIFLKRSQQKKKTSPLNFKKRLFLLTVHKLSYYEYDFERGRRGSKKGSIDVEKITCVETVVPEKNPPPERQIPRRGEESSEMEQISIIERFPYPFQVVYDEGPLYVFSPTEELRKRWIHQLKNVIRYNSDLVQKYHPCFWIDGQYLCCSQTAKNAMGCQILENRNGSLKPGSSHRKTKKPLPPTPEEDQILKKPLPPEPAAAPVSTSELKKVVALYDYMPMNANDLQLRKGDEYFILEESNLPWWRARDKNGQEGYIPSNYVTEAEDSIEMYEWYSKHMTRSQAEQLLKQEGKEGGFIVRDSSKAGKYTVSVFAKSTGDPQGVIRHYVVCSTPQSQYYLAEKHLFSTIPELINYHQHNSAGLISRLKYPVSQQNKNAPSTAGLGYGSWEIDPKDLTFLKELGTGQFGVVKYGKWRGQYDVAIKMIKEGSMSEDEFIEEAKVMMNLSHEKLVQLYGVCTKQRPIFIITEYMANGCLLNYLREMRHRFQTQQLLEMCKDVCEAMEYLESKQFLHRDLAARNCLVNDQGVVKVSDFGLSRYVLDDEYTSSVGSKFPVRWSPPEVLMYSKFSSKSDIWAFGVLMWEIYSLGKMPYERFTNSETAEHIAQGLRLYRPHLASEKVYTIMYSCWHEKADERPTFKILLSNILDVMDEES
Serine/threonine-protein kinase 4, sequence (Q13043 whole entry): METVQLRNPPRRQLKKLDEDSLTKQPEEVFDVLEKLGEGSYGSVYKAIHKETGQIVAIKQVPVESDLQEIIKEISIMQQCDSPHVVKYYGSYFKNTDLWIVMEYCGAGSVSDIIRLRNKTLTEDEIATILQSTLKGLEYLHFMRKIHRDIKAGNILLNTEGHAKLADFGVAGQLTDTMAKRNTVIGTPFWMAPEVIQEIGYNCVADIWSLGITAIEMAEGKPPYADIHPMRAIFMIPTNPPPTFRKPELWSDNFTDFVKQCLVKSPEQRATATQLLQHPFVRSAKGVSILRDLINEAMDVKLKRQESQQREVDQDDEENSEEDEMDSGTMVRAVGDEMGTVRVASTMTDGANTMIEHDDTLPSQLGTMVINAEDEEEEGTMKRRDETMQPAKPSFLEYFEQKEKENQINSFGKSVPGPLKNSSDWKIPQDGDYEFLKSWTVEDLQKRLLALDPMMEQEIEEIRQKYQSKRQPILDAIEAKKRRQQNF
Muscarinic acetylcholine receptor M2, sequence (P08172 whole entry): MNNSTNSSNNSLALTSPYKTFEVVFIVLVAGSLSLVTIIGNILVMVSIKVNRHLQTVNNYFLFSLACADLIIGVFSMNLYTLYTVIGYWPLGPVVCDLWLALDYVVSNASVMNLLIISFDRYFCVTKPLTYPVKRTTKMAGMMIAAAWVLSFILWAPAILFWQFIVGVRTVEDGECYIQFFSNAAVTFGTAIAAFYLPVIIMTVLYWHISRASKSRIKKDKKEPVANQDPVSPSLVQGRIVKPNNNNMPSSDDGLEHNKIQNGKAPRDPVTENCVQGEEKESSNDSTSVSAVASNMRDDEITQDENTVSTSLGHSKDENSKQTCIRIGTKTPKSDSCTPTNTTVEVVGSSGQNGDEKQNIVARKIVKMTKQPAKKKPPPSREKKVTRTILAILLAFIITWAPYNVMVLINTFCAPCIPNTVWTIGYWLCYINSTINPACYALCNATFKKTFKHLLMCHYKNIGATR
N-lysine methyltransferase SETD6, sequence (Q8TBK2 whole entry): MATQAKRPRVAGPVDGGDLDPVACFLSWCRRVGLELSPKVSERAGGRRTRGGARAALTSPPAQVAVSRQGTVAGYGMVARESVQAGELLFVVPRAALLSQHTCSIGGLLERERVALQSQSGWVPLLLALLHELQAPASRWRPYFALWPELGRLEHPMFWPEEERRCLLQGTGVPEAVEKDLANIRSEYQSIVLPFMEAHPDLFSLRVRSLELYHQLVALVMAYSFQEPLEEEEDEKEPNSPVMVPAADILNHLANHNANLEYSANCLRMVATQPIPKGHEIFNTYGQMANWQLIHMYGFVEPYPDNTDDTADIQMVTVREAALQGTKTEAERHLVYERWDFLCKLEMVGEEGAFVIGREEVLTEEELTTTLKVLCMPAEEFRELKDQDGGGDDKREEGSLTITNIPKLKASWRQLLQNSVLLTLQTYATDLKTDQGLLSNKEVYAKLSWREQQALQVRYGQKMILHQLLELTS

For `CS(=O)(=O)c1ccc(-c2cnc(NCc3ccco3)n3cnnc23)cc1` [EED226], the IC50 [1] was > 10 µM, the IC50 [2] was > 10 µM and the IC50 [3] was > 100 µM. The IC50 [4] was > 10 µM, the IC50 [5] was > 10 µM and the IC50 [6] was > 30 µM. The IC50 [7] was > 100 µM, the IC50 [8] was > 30 µM and the IC50 [9] was > 100 µM. The IC50 [10] was > 100 µM, the IC50 [11] was > 30 µM and the IC50 [12] was > 10 µM. For the same molecule, the IC50 (D(1A) dopamine receptor) was > 30 µM, the IC50 [13] was > 10 µM and the IC50 [14] was > 10 µM. The IC50 [15] was > 10 µM, the IC50 [16] was > 10 µM and the IC50 [17] was > 100 µM. The IC50 [18] was > 10 µM, the IC50 [19] was > 30 µM and the IC50 [20] was > 100 µM. The IC50 [21] was > 100 µM, the IC50 [22] was > 10 µM and the IC50 [23] was > 10 µM. For the same molecule, the IC50 [24] was > 30 µM, the IC50 [25] was > 10 µM and the IC50 (Estrogen receptor) was > 30 µM. The IC50 [26] was > 30 µM, the IC50 [27] was > 10 µM and the IC50 [28] was > 100 µM. The IC50 [29] was > 100 µM, the IC50 [30] was > 100 µM and the IC50 [31] was > 100 µM. For the same molecule, the IC50 [32] was > 100 µM, the IC50 [33] was > 100 µM and the IC50 [34] was > 100 µM. For the same molecule, the IC50 [35] was > 100 µM and the IC50 [36] was > 100 µM.
